The record followed here is patent publication US10066272B2, “Human homeobox gene ventx and macrophage terminal differentiation and activation, compositions and methods thereof” (priority 2011, dated 2018).

Holding throughout (assay type): cell-based, human
The test system of one data set is macrophages. In words: Secreted pro-inflammatory cytokines from macrophage culture supernatants (ELISA). To be noted: transfected macrophages, TNF-α, IL1-β and IL12p70 by ELISA (FIG. 8B). On the procedure:
Macrophages were generated through incubation of freshly isolated monocytes with 100 ng/mL M-CSF for 4 days. These macrophages were then transfected with siGFP or siVentX, respectively, and further cultured in RPMI 1640 medium for additional 3 days. Thereafter, cells were exposed to 1 μg/mL LPS plus 20 ng/mL γ-IFN for 6 hours. (A) Surface staining of CD40, CD80, CD86 and HLA-DR and intracellular staining of TNF-α and IL1-β were analyzed by flow cytometry. (B) Secreted TNF-α, IL1-β and IL12p70 from culture supernatants were determined with ELISA kits. (C) Reactive oxygen species (ROS) from siGFP or siVentX transfected macrophages were analyzed with fluorescence microscope (left) and flow cytometry (middle). […] (D) Nitrate level from siGFP and siVentX transfected macrophages. Data represent mean+SD of three different experiments. (E) Phagocytosis of siGFP and siVentX transfected macrophage. Red histogram represents transfection with siGFP; green histogram represents transfection with siVentX. Left panel: cells were incubated on ice; right panel: cells were incubated at 37° C. (F) Effects of VentX knockdown on mixed lymphocyte reaction. […]
Levels of IL-1β and TNF-α and IL12p70 in the supernatants of E. coli LPS (Sigma) and IFN-γ (PeproTech) treated macrophage or LPS treated U937 cells were quantified using ELISA kits obtained from eBiosciences. […]

Data set [1] relates to cultured monocytes/macrophages. In words: Phagocytosis assay with pHrodo S. aureus BioParticles. The method, then:
(A) Left panel: Flow cytometry analysis of indicated surface markers in monocytes transfected with siGFP or siVentX, respectively; right panel: bar graphs show the mean+SD of at least three separate experiments. *p<0.05; **p<0.01. (B) Effects of VentX knockdown on macrophage viability. Monocytes were transfected with either siGFP or siVentX and subsequently exposed to 100 ng/mL M-CSF for 3 days. Cells were then harvested and stained with PI and Annexin V and analyzed by flow cytometry. (C) Effects of VentX knockdown on phagocytosis. Monocytes were transfected with siGFP or siVentX. Phagocytosis assays were carried out as described in materials and methods. […]
Macrophages were generated through incubation of freshly isolated monocytes with 100 ng/mL M-CSF for 4 days. […] (A) Surface staining of CD40, CD80, CD86 and HLA-DR and intracellular staining of TNF-α and IL1-β were analyzed by flow cytometry. (B) Secreted TNF-α, IL1-β and IL12p70 from culture supernatants were determined with ELISA kits. (C) Reactive oxygen species (ROS) from siGFP or siVentX transfected macrophages were analyzed with fluorescence microscope (left) and flow cytometry (middle). […]
Phagocytosis of cultured monocytes/macrophages or U937 cells were performed with pHrodo™ S. aureus BioParticles® conjugates from Invitrogen. […] After extensive washings, cellular phagocytosis of bioparticles was monitored by flow cytometry. […]

The subject of data set [2] is cytokine mRNA expression in macrophages. In words: Effects of VentX knockdown on cytokine mRNA expression in macrophages (real-time PCR). Also on record: unit not given here. To be noted: macrophages transfected with siRNA; classical activation by LPS plus IFN-γ. The method, then:
Macrophages were generated through incubation of freshly isolated monocytes with 100 ng/mL M-CSF for 4 days. These macrophages were then transfected with siGFP or siVentX, respectively, and further cultured in RPMI 1640 medium for additional 3 days. Thereafter, cells were exposed to 1 μg/mL LPS plus 20 ng/mL γ-IFN for 6 hours. (A) Surface staining of CD40, CD80, CD86 and HLA-DR and intracellular staining of TNF-α and IL1-β were analyzed by flow cytometry. (B) Secreted TNF-α, IL1-β and IL12p70 from culture supernatants were determined with ELISA kits. (C) Reactive oxygen species (ROS) from siGFP or siVentX transfected macrophages were analyzed with fluorescence microscope (left) and flow cytometry (middle). […] (D) Nitrate level from siGFP and siVentX transfected macrophages. Data represent mean+SD of three different experiments. (E) Phagocytosis of siGFP and siVentX transfected macrophage. Red histogram represents transfection with siGFP; green histogram represents transfection with siVentX. Left panel: cells were incubated on ice; right panel: cells were incubated at 37° C. (F) Effects of VentX knockdown on mixed lymphocyte reaction. Irradiated macrophages that had been transfected with siGFP or siVentX were utilized to stimulate allogenic naïve CD4 T cells proliferation. The proliferation rates were represented by counts per minute (CPM). […] Statistically significant difference (p<0.05) was observed when 4×10^2 or 2×10^3 cells were added.
(Martinez, et al. 2008 Front Biosci 13:453-461; Mosser, et al. 2008 Nat Rev Immunol 8:958-969.) To investigate whether VentX is required for classical activation of macrophages, a loss-of-function approach by knockdown of VentX was used.
Human primary monocytes were transfected using the Human Monocyte Nucleofector Kit (Lonza) according to the manufacturer's instructions. Briefly, 5×10^6monocytes were resuspended into 100 μl nucleofector solution with 0.5 nmol of either VentX siRNA (forward: 5′-[…]-3′ (SEQ ID NO:4); reverse: 5′-[…]-3′ (SEQ ID NO:5)) or non-effective GFP siRNA (forward: 5′-[…]-3′ (SEQ ID NO:6); 5′-reverse: […]-3′ (SEQ ID NO:7)) before electroporation with nucleofector II Device (Lonza). Cells were then immediately removed from the device and incubated overnight with 1 ml pre-warmed Human Monocyte Nucleofector Medium containing 2 mM glutamine and 10% FBS. Cells were then resuspended into complete RPMI medium and treated with appropriate cytokines to induce differentiation into macrophages. Similarly, macrophages derived from monocytes were transfected with Human Macrophage Nucleofector Kit (Lonza) following the manufacturer's instructions.
Total RNA was isolated by the TRIzol reagent, and an equal amount of RNA was used for first-strand cDNA synthesis with SuperScript III First-Strand Synthesis System (Invitrogen) according to the manufacturer's protocol. To amplify VentX cDNA with conventional PCR, AccuPrime™ Taq DNA polymerase system (Invitrogen) was used following the manufacturer's instructions. PCR products were separated on 2% agarose gels and stained with ethidium bromide. GAPDH was used as an internal control. Quantitative measurement of VentX and cytokines cDNA were performed with SYBR Green on a LightCycler® (480 Real-Time PCR System; Roche). The primers used are listed in the Sequence Listing (SEQ ID NOs: 24-109).

“siVentX: VentX siRNA, forward 5′-UUCAGAAUCGCCGCAUGAAACACAAACGG-3′ (SEQ ID NO:4), reverse SEQ ID NO:5 (antisense CCGUUUGUGUUUCAUGCGGCGAUUCUGAA; listed as RNA, chemistry not given here)”: in the data set with macrophages, the pro-inflammatory cytokine secretion entry was “significant reduction”. For the same substance, the “phagocytotic capability of transfected macrophages” value in data set [1] (macrophages (FIG. 8E)) is given as “much weaker”. For the same substance, the “phagocytotic activity of transfected monocytes” value in data set [1] (monocytes, in comparison with the control (FIG. 3C)) was “reduced phagocytotic activity”. Further, in data set [2], the “IL1-β cytokine mRNA expression” value was determined as 21.93 ± 1.8, the “IL6 cytokine mRNA expression” value worked out at 1.78 ± 0.14, the “IL8 cytokine mRNA expression” value came to 172 ± 5.8 and the “IL12p35 cytokine mRNA expression” value worked out at 0.37 ± 0.14. For the same substance, in data set [2], the “IL12p40 cytokine mRNA expression” value is recorded as 0.61 ± 0.05, the “M-SCSF cytokine mRNA expression” value was 0.14 ± 0.01 and the “TNF-α cytokine mRNA expression” value stood at 0.18 ± 0.01.
